According to ChEMBL document CHEMBL5528016, “Design, synthesis and evaluation of novel deferasirox derivatives with high antifungal potency in vitro and in vivo” (Eur J Med Chem, 2024):
Converted amounts (≈) assume the structure as drawn. The source made the active and inactive calls. The calls are words filed in the database; no cut-off is given here.

Experiments:
Nakaseomyces glabratus [1] = assay: Antifungal activity against Candida glabrata 203 assessed as reduction in fungal growth incubated for 48 hrs by broth microdilution method; format: functional
[2] = Toxicity against ICR mouse assessed as glomerular enlargement at 50 mg/kg, ip administered at 24 hrs interval for 7 days by hematoxylin and eosin staining based analysis; format: organism-based; conditions: in vivo, 168 h, time 7 day
Cryptococcus neoformans [3] = assay: Antifungal activity against Cryptococcus neoformans H99 assessed as reduction in fungal growth incubated for 72 hrs by broth microdilution method; format: functional
Cryptococcus neoformans [4] = assay: Antifungal activity against Cryptococcus neoformans HN1 assessed as reduction in fungal growth incubated for 72 hrs by broth microdilution method; format: functional
Nakaseomyces glabratus [5] = assay: Antifungal activity against Candida glabrata YC1-34 assessed as reduction in fungal growth incubated for 48 hrs by broth microdilution method; format: functional
Nakaseomyces glabratus [6] = assay: Antifungal activity against Candida glabrata Y10-15 assessed as reduction in fungal growth incubated for 48 hrs by broth microdilution method; format: functional
Cryptococcus neoformans [7] = assay: Antifungal activity against Cryptococcus neoformans 444 assessed as reduction in fungal growth incubated for 72 hrs by broth microdilution method; format: functional
[8] = Antifungal activity against Cryptococcus gattii VGI SCZ20024 assessed as reduction in fungal growth incubated for 72 hrs by broth microdilution method; format: functional
Nakaseomyces glabratus [9] = assay: Antifungal activity against Candida glabrata 537 assessed as reduction in fungal growth incubated for 72 hrs by broth microdilution method; format: functional
[10] = Toxicity against ICR mouse assessed as enlargement of cytoplasm in hepatocytes at 50 mg/kg, ip administered at 24 hrs interval for 7 days by hematoxylin and eosin staining based analysis; format: organism-based; conditions: in vivo
[11] = Toxicity against ICR mouse assessed as increase in monocytes at 50 mg/kg, ip administered at 24 hrs interval for 7 days by hematoxylin and eosin staining based analysis; format: organism-based; conditions: in vivo, 168 h, time 7 day
Candida parapsilosis = assay: Antifungal activity against Candida parapsilosis ATCC 22019 assessed as reduction in fungal growth incubated for 72 hrs by broth microdilution method; format: functional; conditions: Lodderomyces parapsilosis
[12] = Toxicity against ICR mouse assessed as enlargement of nucleus in hepatocytes at 50 mg/kg, ip administered at 24 hrs interval for 7 days by hematoxylin and eosin staining based analysis; format: organism-based; conditions: in vivo, 168 h, time 7 day
Cryptococcus neoformans [13] = assay: Antifungal activity against Cryptococcus neoformans HN15 assessed as reduction in fungal growth incubated for 72 hrs by broth microdilution method; format: functional
Cryptococcus neoformans [14] = assay: Antifungal activity against Cryptococcus neoformans 20 assessed as reduction in fungal growth incubated for 72 hrs by broth microdilution method; format: functional
[15] = Metabolic stability in mouse liver microsomes assessed as half life; format: ADME, Microsome
Pichia kudriavzevii = assay: Antifungal activity against Pichia kudriavzevii 4946 assessed as reduction in fungal growth incubated for 72 hrs by broth microdilution method; format: functional
[16] = Toxicity against ICR mouse assessed as hypertrophy at 50 mg/kg, ip administered at 24 hrs interval for 7 days by hematoxylin and eosin staining based analysis; format: organism-based; conditions: in vivo, 168 h, time 7 day
[17] = Toxicity against ICR mouse assessed as reduction in lipid droplet at 50 mg/kg, ip administered at 24 hrs interval for 7 days by hematoxylin and eosin staining based analysis; format: organism-based; conditions: in vivo, 168 h, time 7 day
Nakaseomyces glabratus [18] = assay: Antifungal activity against Candida glabrata 337 assessed as reduction in fungal growth incubated for 48 hrs by broth microdilution method; format: functional
[19] = Toxicity against ICR mouse assessed as inflammatory cell infiltration at 50 mg/kg, ip administered at 24 hrs interval for 7 days by hematoxylin and eosin staining based analysis; format: organism-based; conditions: in vivo, 168 h, time 7 day
[20] = Antifungal activity against Cryptococcus gattii VGI E566 assessed as reduction in fungal growth incubated for 72 hrs by broth microdilution method; format: functional
[21] = Antifungal activity against Cryptococcus gattii VGI WM179 assessed as reduction in fungal growth incubated for 72 hrs by broth microdilution method; format: functional
[Candida] auris = Antifungal activity against Candida auris D12 assessed as reduction in fungal growth incubated for 72 hrs by broth microdilution method; format: functional; conditions: Candidozyma auris
[22] = Metabolic stability in mouse liver microsomes assessed as elimination rate constant; format: ADME, Microsome
Cryptococcus neoformans [23] = assay: Antifungal activity against Cryptococcus neoformans BJ3 assessed as reduction in fungal growth incubated for 72 hrs by broth microdilution method; format: functional
Candida tropicalis = assay: Antifungal activity against Candida tropicalis 2718 assessed as reduction in fungal growth incubated for 72 hrs by broth microdilution method; format: functional
[24] = Antifungal activity against Cryptococcus gattii VGI SCZ20031 assessed as reduction in fungal growth incubated for 72 hrs by broth microdilution method; format: functional
[25] = Metabolic stability in mouse liver microsomes assessed as intrinsic clearance; format: ADME, Microsome; conditions: read-out: CLH
[26] = Antifungal activity against Cryptococcus gattii VGI WM178 assessed as reduction in fungal growth incubated for 72 hrs by broth microdilution method; format: functional
Candida albicans = assay: Antifungal activity against Candida albicans SC5314 assessed as reduction in fungal growth incubated for 72 hrs by broth microdilution method; format: functional
Caco-2 = assay: Cytotoxicity against human Caco-2 cells assessed as reduction in cell viability at 0.25 to 64 ug/ml incubated for 2 hrs by CCK-8 assay; format: toxicity, cell-based; conditions: caco-2, 2 h, dose 0.25-64 µg/ml
[27] = Hemolytic activity in rabbit Red blood cell at 2 ug/ml relative to control; format: toxicity, cell-based, Oryctolagus cuniculus, Erythrocyte; conditions: red blood cells, at 2 µg/mL, read-out: Activity
HUVEC = assay: Cytotoxicity against HUVEC cells assessed as reduction in cell viability at 0.25 to 64 ug/ml incubated for 2 hrs by CCK-8 assay; format: toxicity, cell-based; conditions: human, dose 0.25-64 µg/ml
[28] = Hemolytic activity in rabbit Red blood cell at 64 ug/ml relative to control; format: toxicity, cell-based, Oryctolagus cuniculus, Erythrocyte; conditions: red blood cells, at 64 µg/mL, read-out: Activity
Cryptococcus neoformans [29] = assay: Antifungal activity against Cryptococcus neoformans H99 infected in C57BL/6J mouse assessed as reduction in fungal burden in lung at 10 mg/kg, ip; format: functional, organism-based
Cryptococcus neoformans [30] = assay: Antifungal activity against Cryptococcus neoformans assessed as increase in MIC incubated for 72 hrs in presence of FeCl3 by broth microdilution method; format: functional, organism-based
Cryptococcus neoformans [31] = assay: Antifungal activity against Cryptococcus neoformans H99 infected in C57BL/6J mouse assessed as reduction in fungal burden in brain at 10 mg/kg, ip; format: functional, organism-based
[32] = Nephrotoxicity in ICR mouse at 50 mg/kg, ip administered at 24 hrs interval for 7 days by hematoxylin and eosin staining based analysis; format: toxicity, organism-based; conditions: in vivo, 168 h, time 7 day
Cryptococcus neoformans [33] = assay: Antifungal activity against Cryptococcus neoformans H99 infected in C57BL/6J mouse assessed as reduction in fungal burden in brain at 2 mg/kg, ip; format: functional, organism-based
Erythrocyte = assay: Hemolytic activity in rabbit Red blood cell at 64 ug/ml; format: toxicity, cell-based, Oryctolagus cuniculus; conditions: dose 64 µg/ml
Cryptococcus neoformans [34] = assay: Antifungal activity against Cryptococcus neoformans H99 infected in C57BL/6J mouse assessed as reduction in fungal burden in lung at 2 mg/kg, ip; format: functional, organism-based
[35] = Toxicity against ICR mouse assessed as reduction in lipid droplet at 20 mg/kg, ip administered at 24 hrs interval for 7 days by hematoxylin and eosin staining based analysis; format: organism-based; conditions: in vivo, 168 h, time 7 day

Row | MIC (Nakaseomyces glabratus [1]) [µg/mL] | MIC (Cryptococcus neoformans [3]) [µg/mL] | MIC (Cryptococcus neoformans [4]) [µg/mL] | MIC (Nakaseomyces glabratus [5]) [µg/mL] | MIC (Nakaseomyces glabratus [6]) [µg/mL] | MIC (Cryptococcus neoformans [7]) [µg/mL] | MIC [8] [µg/mL] | MIC (Nakaseomyces glabratus [9]) [µg/mL] | MIC (Candida parapsilosis) [µg/mL] | MIC (Cryptococcus neoformans [13]) [µg/mL] | MIC (Nakaseomyces glabratus [18]) [µg/mL] | MIC [20] [µg/mL] | MIC [21] [µg/mL] | MIC ([Candida] auris) [µg/mL] | MIC (Cryptococcus neoformans [23]) [µg/mL] | MIC (Candida tropicalis) [µg/mL] | MIC [24] [µg/mL] | MIC [26] [µg/mL] | MIC (Candida albicans) [µg/mL] | SMILES | Activity [10] | other results
1 | 2 (≈ 5.36 µM) | 2 (≈ 5.36 µM) | 4 (≈ 10.7 µM) | 0.25 (≈ 0.67 µM) | 0.5 (≈ 1.34 µM) | 8 (≈ 21.4 µM) | 2 (≈ 5.36 µM) | 0.5 (≈ 1.34 µM) | 32 (≈ 85.7 µM) | 2 (≈ 5.36 µM) | 0.5 (≈ 1.34 µM) | 8 (≈ 21.4 µM) | 8 (≈ 21.4 µM) | > 64 | 8 (≈ 21.4 µM) | 8 (≈ 21.4 µM) | 2 (≈ 5.36 µM) | 8 (≈ 21.4 µM) | > 64 | O=C(O)c1ccc(-n2nc(-c3ccccc3O)nc2-c2ccccc2O)cc1 [DEFERASIROX] | Toxic | Activity [2]: Toxic; Activity [11]: Toxic; Activity [12]: Toxic; MIC (Cryptococcus neoformans [14]): 2 µg/mL (≈ 5.36 µM); half-life [15]: 3.9 h; MIC (Pichia kudriavzevii): 2 µg/mL (≈ 5.36 µM); Activity [16]: Toxic; Activity [17]: Toxic; Activity [19]: Toxic; k el [22]: 5e-05 s⁻¹; microsomal CLint [25]: 5.94 µL/min/mg
2 | < 0.125 | 0.25 (≈ 0.51 µM) | < 0.125 | < 0.125 | < 0.125 | 1 (≈ 2.04 µM) | 0.25 (≈ 0.51 µM) | < 0.125 | 64 (≈ 130 µM) | < 0.125 | < 0.125 | 0.5 (≈ 1.02 µM) | 0.5 (≈ 1.02 µM) | > 64 | 0.5 (≈ 1.02 µM) | 2 (≈ 4.08 µM) | < 0.125 | 0.25 (≈ 0.51 µM) | 4 (≈ 8.15 µM) | O=C(NC1CCS(=O)(=O)C1)c1ccc(-n2nc(-c3ccccc3O)nc2-c2ccccc2O)cc1 (stereo unspecified) | Toxic | Activity (Cryptococcus neoformans [29]): Active; Activity (Cryptococcus neoformans [30]): inactive; Activity (Cryptococcus neoformans [31]): Active; Activity [32]: Toxic; Activity (Cryptococcus neoformans [33]): inactive; Activity (Caco-2): Non-Toxic; Activity (Erythrocyte): Non-Toxic; Activity (Cryptococcus neoformans [34]): inactive; Activity [35]: Toxic; Activity [12]: Toxic; MIC (Cryptococcus neoformans [14]): < 0.125 µg/mL; half-life [15]: 2.13 h; MIC (Pichia kudriavzevii): 0.25 µg/mL (≈ 0.51 µM); Activity [16]: Toxic; Activity [17]: Toxic; Activity (HUVEC): Non-Toxic; k el [22]: 8.33e-05 s⁻¹; microsomal CLint [25]: 10.9 µL/min/mg

Row | SMILES | MIC (Nakaseomyces glabratus [1]) [µg/mL] | MIC (Cryptococcus neoformans [3]) [µg/mL] | MIC (Cryptococcus neoformans [4]) [µg/mL] | MIC (Nakaseomyces glabratus [5]) [µg/mL] | MIC (Nakaseomyces glabratus [6]) [µg/mL] | MIC (Cryptococcus neoformans [7]) [µg/mL] | MIC [8] [µg/mL] | MIC (Nakaseomyces glabratus [9]) [µg/mL] | MIC (Candida parapsilosis) [µg/mL] | MIC (Cryptococcus neoformans [13]) [µg/mL] | MIC (Nakaseomyces glabratus [18]) [µg/mL] | MIC [20] [µg/mL] | MIC [21] [µg/mL] | MIC ([Candida] auris) [µg/mL] | MIC (Cryptococcus neoformans [23]) [µg/mL] | MIC (Candida tropicalis) [µg/mL] | MIC [24] [µg/mL] | MIC [26] [µg/mL] | MIC (Candida albicans) [µg/mL] | Activity [10] | other results
3 | C[C@@H]1[C@H](O)[C@@H](C)/C=C/C=C/C=C/C=C/C=C/C=C/C=C/[C@H](O[C@@H]2O[C@H](C)[C@@H](O)[C@H](N)[C@@H]2O)C[C@@H]2O[C@](O)(C[C@@H](O)C[C@@H](O)[C@H](O)CC[C@@H](O)C[C@@H](O)CC(=O)O[C@H]1C)C[C@H](O)[C@H]2C(=O)O [AMPHOTERICIN B] | 16 (≈ 17.3 µM) |  | 1 (≈ 1.08 µM) | 1 (≈ 1.08 µM) | 2 (≈ 2.16 µM) | 2 (≈ 2.16 µM) | 1 (≈ 1.08 µM) | < 0.125 | 0.5 (≈ 0.541 µM) | 8 (≈ 8.66 µM) | 0.5 (≈ 0.541 µM) | 4 (≈ 4.33 µM) | 1 (≈ 1.08 µM) | 8 (≈ 8.66 µM) | 2 (≈ 2.16 µM) | 1 (≈ 1.08 µM) | 1 (≈ 1.08 µM) | 1 (≈ 1.08 µM) | 1 (≈ 1.08 µM) |  | Activity (Caco-2): Non-Toxic; hemolysis at 2 ug/ml [27]: > 10%; Activity (HUVEC): Non-Toxic; hemolysis at 64 ug/ml [28]: 100%
